Patent US10864238B2, “Composition containing Poria cocos peel extract for treating neurodegenerative disorders” (NeuroBo Pharmaceuticals, Inc., priority 2014, dated 2020)

Columns and labels:
human Tau [pS199] = assay: Phosphorylated tau in neuronal cell line (ELISA); format: cell-based; conditions: 10 ug/ml; SH-SY5Y; FIG. 11
Method: Phosphorylated tau levels were measured in order to confirm the inhibitory effect of Poria cocos peel extracts on tau hyper-phosphorylation. SH-SY5Y cells (1×10^6 cells/well) were seeded in 6-well culture plates and cultured in DMEM/F12 (Dulbecco's modified Eagle's medium) medium containing 10% FBS (fetal bovine serum) for 48 hours. After 5 days of differentiation using DMEM/F12 medium containing 10 μM retinoic acid and 3% FBS, after 6 hours of treatment with the Poria cocos peel extracts (10 or 100 ug/mL), Aβ42 was treated and cultured for a total of 48 hours. After cell lysis using RIPA buffer, the protein content was quantitated with BCA reagent purchased from Pierce. Phosphorylated tau was measured using human Tau [pS199] enzyme-linked immunosorbent assay (ELISA) KIT purchased from Invitrogen.

beta-nerve growth factor = assay: NGF level measurement in nerve cell line (ELISA); format: cell-based, human; conditions: 10 ug/mL; SH-SY5Y; FIG. 12
Method: NGF levels were measured in order to determine the mechanism of cognitive improvement of the Poria cocos peel extracts. SH-SY5Y cells (1×10^6 cells/well) were inoculated on 6-well culture plates and cultured in DMEM/F12 (Dulbecco's modified Eagle's medium) medium containing 10% fetal bovine serum for 48 hours. After 5 days of differentiation using DMEM/F12 medium containing 10 μM retinoic acid and 3% FBS, the cells were treated with Poria cocos peel extracts (10 or 100 ug/ml). Cells were lysed using RIPA buffer, and protein content was quantitated with BCA reagent purchased from Pierce. NGF levels were measured using a beta-nerve growth factor human enzyme-linked immunosorbent assay (ELISA) KIT purchased from Abcam.

SMILES: COc1cc2c(cc1OC)C(=O)C(CC1CCN(Cc3ccccc3)CC1)C2 (centres unmarked) [Donepezil]
- tau phosphorylation induced by Aβ42 (human Tau [pS199]): did not show the inhibitory effect on tau phosphorylation
- NGF production (beta-nerve growth factor): did not show NGF-related efficacy
